This is an account of results in patent publication US20050159444A1, “Bicyclic unsaturated tertiary amine compounds” (SANKYO COMPANY, LIMITED, priority 2002, published 2005).

Broadly, the inhibition in vivo is how much of the control response was suppressed. One may read the IC50 as the concentration needed to halve the response being measured.

The test system of the first experiment is TNFα production. Briefly: Inhibition of the production of TNFα in vivo (lipopolysaccharide-injected mice). Particulars: Mus musculus, oral, 30 minutes before lipopolysaccharide injection, plasma TNFα 1 hour after LPS, Balb/c mice, average vs control group, read-out: Inhibition Rate (%) of TNFα Production (in vivo). The protocol:
Inhibition of the Production of TNFα In Vivo
This test was performed according to the method of Ochalaki et al. [S. J. Ochalaki, D. A. Hartman, M. T. Belfast, T. L. Walter, K. B. Glaser and R. P. Carlson; Inhibition of endotoxin-induced hypothermia and serum TNFα levels in CD-1 mice by various pharmacological agents: Agents Actions 39, C52-C54 (1998)].
The production of TNFα was induced in mice by intravenous injection of lipopolysaccharide (E. coli O26: B6 origin, Difco) which was prepared to a concentration of 0.045 mg/ml using physiological saline. The saline preparation of lipopolysaccharide was administered at the rate of 10 ml/1 kg of body weight into the caudal vein of Balb/c mice (males, age 5-7 weeks, body weight: approx. 22 g, Japan Charles River) which had been fasted overnight starting the day before the experiment. One hour after administration, the mice were laparotomized under ether anaesthesia and blood was collected from the abdominal vena cava. Blood collection was performed using a 1 ml volume disposable syringe equipped with a 23G needle which had been moistened with heparin on the inside wall. Following blood collection, the blood was immediately transferred to a 1.5 ml volume Eppendorf tube and centrifuged at 4° C. and 14,000 rpm to separate the plasma. This plasma was then stored at −20° C. until measurement of TNFα.
The measurement of the amount of TNFα was performed with a enzyme immunoassay (ELISA) kit (Mouse TNFα ELISA KIT, Genzyme).
To determine the inhibitory activity of the test compounds, each test compound was suspended in 0.5% tragacanth solution ad then administered orally to the mice at a rate of 10 ml/1 kg of body weight 30 minutes before injection of the lipopolysaccharide, and the average inhibition rates were calculated versus a control group.
Consider `COc1cccc([C@@H]2C[C@H]3C=C(c4c[nH]c(-c5ccc(F)c(F)c5)c4-c4ccncc4)CCN3C2)c1` [Example 31, 2-(3,4-Difluorophenyl)-4-[(2S,8aS)-2-(3-methoxyphenyl)-1,2,3,5,6,8a-hexahydroindolizin-7-yl]-3-(pyridin-4-yl)-1H-pyrrole], for which the inhibition in vivo at 5 mg/kg is 92%.
Still for that read-out and setting: with `C1=C(c2c[nH]c(-c3ccccc3)c2-c2ccncc2)CCN2C[C@H](c3ccccc3)C[C@@H]12` [Example 25, 2-Phenyl-4-[(2S,8aS)-2-phenyl-1,2,3,5,6,8a-hexahydroindolizin-7-yl]-3-(pyridin-4-yl)-1H-pyrrole] the figure was 92%; with `Cc1ccc([C@@H]2C[C@H]3C=C(c4c[nH]c(-c5ccc(F)c(F)c5)c4-c4ccncc4)CCN3C2)cc1C` [Example 41, 2-(3,4-Difluorophenyl)-4-[(2S,8aS)-2-(3,4-dimethylphenyl)-1,2,3,5,6,8a-hexahydroindolizin-7-yl]-3-(pyridin-4-yl)-1H-pyrrole], 91%.
As to `CCOc1ccc([C@@H]2C[C@H]3C=C(c4c[nH]c(-c5ccc(F)cc5)c4-c4ccncc4)CCN3C2)cc1` [Example 30, 4-[(2S,8aS)-2-(4-Ethoxyphenyl)-1,2,3,5,6,8a-hexahydroindolizin-7-yl]-2-(4-fluorophenyl)-3-(pyridin-4-yl)-1H-pyrrole], the inhibition in vivo at 5 mg/kg came to 90%.
The same measure, in the same setting: with `COc1ccc([C@@H]2C[C@H]3C=C(c4c[nH]c(-c5cccc(Cl)c5)c4-c4ccncc4)CCN3C2)cc1` [Example 23, 2-(3-Chlorophenyl)-4-[(2S,8aS)-2-(4-methoxyphenyl)-1,2,3,5,6,8a-hexahydroindolizin-7-yl]-3-(pyridin-4-yl)-1H-pyrrole] the figure was 90%.
Same read-out and setting: with `Fc1ccc(-c2[nH]cc(C3=C[C@@H]4C[C@@H](c5ccccc5)CN4CC3)c2-c2ccncc2)cc1Cl` [Example 46, 2-(3-Chloro-4-fluorophenyl)-4-[(2S,8aS)-2-phenyl-1,2,3,5,6,8a-hexahydroindolizin-7-yl]-3-(pyridin-4-yl)-1H-pyrrole] the figure was 93%; with `Clc1cccc(-c2[nH]cc(C3=C[C@@H]4C[C@@H](c5ccccc5)CN4CC3)c2-c2ccncc2)c1` [Example 10, 2-(3-Chlorophenyl)-4-[(2S,8aS)-2-phenyl-1,2,3,5,6,8a-hexahydroindolizin-7-yl]-3-(pyridin-4-yl)-1H-pyrrole], 91%.
Turning to `COc1ccc([C@@H]2C[C@H]3C=C(c4c[nH]c(-c5ccc(F)cc5)c4-c4ccncc4)CCN3C2)cc1` [Example 16, 2-(4-Fluorophenyl)-4-[(2S,8aS)-2-(4-methoxyphenyl)-1,2,3,5,6,8a-hexahydroindolizin-7-yl]-3-(pyridin-4-yl)-1H-pyrrole], the inhibition in vivo at 5 mg/kg turned out to be 90%.
Consider `Fc1ccc(-c2[nH]cc(C3=C[C@@H]4C[C@@H](c5ccccc5)CN4CC3)c2-c2ccncc2)cc1F` [Example 8, 2-(3,4-Difluorophenyl)-4-[(2S,8aS)-2-phenyl-1,2,3,5,6,8a-hexahydroindolizin-7-yl]-3-(pyridin-4-yl)-1H-pyrrole], for which the inhibition in vivo at 5 mg/kg worked out at 91%.

The subject of a further experiment is TNFα production. Briefly: Inhibition of the production of TNFα in vitro in human whole blood. Format: cell-based. Particulars: lipopolysaccharide 10 μg/ml, 6 hours at 37° C., ELISA of plasma, read-out: Inhibitory Effect on TNFα Production (in vitro) IC50. The protocol:
Inhibition of the Production of the Cytokines IL-1β and TNFα In Vitro in Human Whole Blood
This test was performed according to the method of Hartman, et al. [D. A. Hartman, S. J. Ochalski and R. P. Carlson; The effects of anti-inflammatory and antiallergic drugs on cytokine release after stimulation of human whole blood by lipopolysaccharide and zymosan A: Inflamm. Res., 44, 269 (1995)].
Peripheral blood samples were collected in the presence of heparin from healthy adult volunteers. 1000 μl of whole blood was added to an Eppendorf tube to which 2 μl of a dimethyl sulfoxide solution of the test compound had been previously added, after which 10 μl of lipopolysaccharide (E. coli O26: B6 origin, Difco) was added as a stimulant (final concentration of said lipopolysaccharide: 10 μg/ml). This was thoroughly mixed and then incubated for 6 hours at 37° C. in the presence of 5% CO2. At the end of the incubation, the mixture was cooled to 4° C. to stop the reaction, followed immediately by centrifuging for 5 minutes at 14,000 rpm to separate and collect the supernatant plasma. The IL-1β and TNFα produced and released into the plasma were measured using a commercially available enzyme immunoassay (ELISA) kits [Cayman and Genzyme]. The inhibitory effect [IC50 (μM)] on the production of cytokines was determined by the method of least squares from the amounts of the cytokines produced in the presence and absence of the test compound.
With `Cc1ccc([C@H]2C[C@H]3C=C(c4c[nH]c(-c5ccc(F)cc5)c4-c4ccncc4)CCN3C2)cc1` [Example 4, 2-(4-Fluorophenyl)-4-[(2R,8aS)-2-(4-methylphenyl)-1,2,3,5,6,8a-hexahydroindolizin-7-yl]-3-(pyridin-4-yl)-1H-pyrrole], the IC50 amounted to 7.8 nM.
Consider `CCC[C@H]1C[C@H]2C=C(c3n[nH]c(-c4ccc(F)cc4)c3-c3ccncc3)CCN2C1` [Example 6, 5-(4-Fluorophenyl)-3-[(2S,8aS)-2-propyl-1,2,3,5,6,8a-hexahydroindolizin-7-yl]-4-(pyridin-4-yl)-pyrazole], for which the 50% inhibitory concentration (IC50) is 6.3 nM.
`Fc1ccc(-c2[nH]cc(C3=C[C@@H]4C[C@@H](c5ccccc5)CN4CC3)c2-c2ccncc2)cc1Cl` [Example 46, 2-(3-Chloro-4-fluorophenyl)-4-[(2S,8aS)-2-phenyl-1,2,3,5,6,8a-hexahydroindolizin-7-yl]-3-(pyridin-4-yl)-1H-pyrrole]: the IC50 is 2.1 nM.
The same measure, in the same setting: in the case of `Clc1cccc(-c2[nH]cc(C3=C[C@@H]4C[C@@H](c5ccccc5)CN4CC3)c2-c2ccncc2)c1` [Example 10, 2-(3-Chlorophenyl)-4-[(2S,8aS)-2-phenyl-1,2,3,5,6,8a-hexahydroindolizin-7-yl]-3-(pyridin-4-yl)-1H-pyrrole] it was 7.3 nM; in that of `Cc1ccc([C@@H]2C[C@H]3C=C(c4c[nH]c(-c5ccc(F)c(F)c5)c4-c4ccncc4)CCN3C2)cc1` [Example 12, 2-(3,4-Difluorophenyl)-4-[(2S,8aS)-2-(4-methylphenyl)-1,2,3,5,6,8a-hexahydroindolizin-7-yl]-3-(pyridin-4-yl)-1H-pyrrole], 5.5 nM.
The same measure, in the same setting: with `COc1ccc([C@@H]2C[C@H]3C=C(c4c[nH]c(-c5ccc(F)cc5)c4-c4ccncc4)CCN3C2)cc1` [Example 16, 2-(4-Fluorophenyl)-4-[(2S,8aS)-2-(4-methoxyphenyl)-1,2,3,5,6,8a-hexahydroindolizin-7-yl]-3-(pyridin-4-yl)-1H-pyrrole] the figure was 5.4 nM.
Still for that read-out and setting: with `Fc1ccc(-c2[nH]cc(C3=C[C@@H]4C[C@H](c5ccc(F)cc5)CN4CC3)c2-c2ccncc2)cc1` [Example 3, 2-(4-Fluorophenyl)-4-[(2R,8aS)-2-(4-fluorophenyl)-1,2,3,5,6,8a-hexahydroindolizin-7-yl]-3-(pyridin-4-yl)-1H-pyrrole] the figure was 5.1 nM.

A further experiment has as its system adjuvant-induced arthritis. Briefly: Activity in preventing the development of adjuvant-induced arthritis in vivo. Particulars: dose: 10 mg/kg, oral once a day from day 0 to day 20; measured on day 21; Lewis rat. How it is done: Activity in Preventing the Development of Adjuvant-Induced Arthritis In Vivo The test was performed according to the method described by Winder et al. (Arthritis Rheum., 12, 472-482, 1969). Heat-killed dried Mycobacterium butyricum (Difco Laboratories, Lot 679123) was ground on an agate mortar, and was then suspended in dry-sterilised liquid paraffin (first grade, Wako Pure Chemical Industries, Ltd.) to make a 2 mg/ml suspension. The resulting suspension was then sonicated and used as an adjuvant. Arthritis was induced by the intradermal injection of the adjuvant (100 μg of heat killed dried bacterium/0.05 ml of paraffin/paw) into the heel of the right hind paw of a Lewis rat (male, age 9 weeks, 190 g, Japan Charles River). The rats were assigned to groups of 5 animals each. […] The volumes of the right hind paw (adjuvant-injected paw) and left hind paw (non-injected paw) were measured on days 3, 5, 7, 10, 13, 15, 18 and 21 using a Plethysmometer™ (Ugo Basile), the hind paws being soaked from the toe to the hairline in the bath of the Plethysmometer™. The volumes of the swollen feet (adjuvant-injected right hind foot volume—non-injected left hind foot volume) were calculated. The percent inhibition of swelling of the injected foot of the treated animals as compared to that of the control animals on day 21 was calculated as follows. [formula]
With `Fc1ccc(-c2[nH]cc(C3=C[C@@H]4C[C@@H](c5ccccc5)CN4CC3)c2-c2ccncc2)cc1` [Example 2, 2-(4-Fluorophenyl)-4-[(2S,8aS)-2-phenyl-1,2,3,5,6,8a-hexahydroindolizin-7-yl]-3-(pyridin-4-yl)-1H-pyrrole], the “Inhibition rate (%) of swelling of adjuvant-injected foot” value was 84%.
Consider `Fc1ccc(-c2[nH]nc(C3=C[C@@H]4C[C@@H](c5ccccc5)CN4CC3)c2-c2ccncc2)cc1` [Example 7, 5-(4-Fluorophenyl)-3-[(2S,8aS)-2-phenyl-1,2,3,5,6,8a-hexahydroindolizin-7-yl]-4-(pyridin-4-yl)pyrazole], for which the “Inhibition rate (%) of swelling of adjuvant-injected foot” value came to 81%.
